Reference: PubChem BioAssay AID1963848 (Molecular Pharmacology Branch, DTP, NCI, 2024)
pIC50: −log10 of the molar value.

Test system: 379773-124-R-J2-PDC spheroid viability
Experiment: Anticancer human tumor 379773-124-R-J2-PDC patient-derived endometrial carcinoma cell line growth inhibition [POLQ]
Settings: spheroids with HUVEC and MSC; for pIC50: curve of first compound; for viability, T/C: stronger effect = lower value
Procedure, shortened: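 Complex spheroid viability model combining PDC tumour cells with endothelial (HUVEC) and MSC stromal cells. Novobiocin, ART-558 or RP6685 were tested singly and in combination with standard and investigational anticancer drugs. Each was titrated in half-log steps from near clinical Cmax, or from 10 microM where Cmax was unknown.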

[1] = second compound 0.0316 µM, first compound 0.0316 µM
[2] = second compound 0.0316 µM, first compound 0.1 µM
[3] = second compound 0.0316 µM, first compound 0.316 µM
[4] = second compound 0.0316 µM, first compound 1 µM
[5] = second compound 0.0316 µM, first compound 3.16 µM
[6] = second compound 0.0316 µM, first compound 10 µM
[7] = second compound 0.1 µM, first compound 0.0316 µM
[8] = second compound 0.1 µM, first compound 0.1 µM
[9] = second compound 0.1 µM, first compound 0.316 µM
[10] = second compound 0.1 µM, first compound 1 µM
[11] = second compound 0.1 µM, first compound 3.16 µM
[12] = second compound 0.1 µM, first compound 10 µM
[13] = second compound 0.316 µM, first compound 0.0316 µM
[14] = second compound 0.316 µM, first compound 0.1 µM
[15] = second compound 0.316 µM, first compound 0.316 µM
[16] = second compound 0.316 µM, first compound 1 µM
[17] = second compound 0.316 µM, first compound 3.16 µM
[18] = second compound 0.316 µM, first compound 10 µM
[19] = second compound 1 µM, first compound 0.0316 µM
[20] = second compound 1 µM, first compound 0.1 µM
[21] = second compound 1 µM, first compound 0.316 µM
[22] = second compound 1 µM, first compound 1 µM
[23] = second compound 1 µM, first compound 3.16 µM
[24] = second compound 1 µM, first compound 10 µM
[25] = second compound 3.16 µM, first compound 0.0316 µM
[26] = second compound 3.16 µM, first compound 0.1 µM
[27] = second compound 3.16 µM, first compound 0.316 µM
[28] = second compound 3.16 µM, first compound 1 µM
[29] = second compound 3.16 µM, first compound 3.16 µM
[30] = second compound 3.16 µM, first compound 10 µM
[31] = second compound 10 µM, first compound 0.0316 µM
[32] = second compound 10 µM, first compound 0.1 µM
[33] = second compound 10 µM, first compound 0.316 µM
[34] = second compound 10 µM, first compound 1 µM
[35] = second compound 10 µM, first compound 3.16 µM
[36] = second compound 10 µM, first compound 10 µM
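Note: spheroids exposed to drugs for seven days before readout.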
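Throughout, for viability, T/C: percent viability relative to DMSO vehicle control taken as 100%.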

For `Nc1ccn(C2OC(CO)C(O)C2(F)F)c(=O)n1` (stereo unspecified) + COC1C(OC(N)=O)C(O)C(Oc2ccc3c(O)c(NC(=O)c4ccc(O)c(CC=C(C)C)c4)c(=O)oc3c2C)OC1(C)C, the pIC50 (second compound 0.0316 µM) was over 7.50, the pIC50 (second compound 0.1 µM) was over 7.50 and the pIC50 (second compound 0.316 µM) was over 7.50. The pIC50 (second compound 1 µM) was over 7.50, the pIC50 (second compound 3.16 µM) was over 7.50 and the pIC50 (second compound 10 µM) was over 7.50. The viability, T/C [1] was 14.1%, the viability, T/C [2] was 7.21% and the viability, T/C [3] was 8.07%. The viability, T/C [4] was 10.4%, the viability, T/C [5] was 7.9% and the viability, T/C [6] was 5.28%. The viability, T/C [7] was 13.9%, the viability, T/C [8] was 7.13% and the viability, T/C [9] was 9.39%. It also gave a viability, T/C [10] of 8.07%, a viability, T/C [11] of 8.46% and a viability, T/C [12] of 7.04%. For the same compound, the viability, T/C [13] was 14.2%, the viability, T/C [14] was 9.44% and the viability, T/C [15] was 8.7%. For the same compound, the viability, T/C [16] was 9.16%, the viability, T/C [17] was 11.3% and the viability, T/C [18] was 9.38%. For the same compound, the viability, T/C [19] was 19.4%, the viability, T/C [20] was 7.26% and the viability, T/C [21] was 9.54%. The viability, T/C [22] was 8.14%, the viability, T/C [23] was 9.07% and the viability, T/C [24] was 7.06%. For the same compound, the viability, T/C [25] was 16.1%, the viability, T/C [26] was 7.44% and the viability, T/C [27] was 8.41%. The viability, T/C [28] was 9.67%, the viability, T/C [29] was 7.02% and the viability, T/C [30] was 6.42%. It also gave a viability, T/C [31] of 17.5%, a viability, T/C [32] of 5.7% and a viability, T/C [33] of 9.27%. It also gave a viability, T/C [34] of 8.67%, a viability, T/C [35] of 8.15% and a viability, T/C [36] of 8.46%.
`CC1COCCN1c1cc(C2(S(C)(=N)=O)CC2)nc(-c2ccnc3[nH]ccc23)n1` (stereo unspecified) + COC1C(OC(N)=O)C(O)C(Oc2ccc3c(O)c(NC(=O)c4ccc(O)c(CC=C(C)C)c4)c(=O)oc3c2C)OC1(C)C was tested, and the pIC50 (second compound 0.0316 µM) was 5.72, the pIC50 (second compound 0.1 µM) was 5.73 and the pIC50 (second compound 0.316 µM) was 5.75. For the same compound, the pIC50 (second compound 1 µM) was 5.71, the pIC50 (second compound 3.16 µM) was 5.75 and the pIC50 (second compound 10 µM) was 5.78. The viability, T/C [1] was 100%, the viability, T/C [2] was 86.1% and the viability, T/C [3] was 78.5%. For the same compound, the viability, T/C [4] was 78.2%, the viability, T/C [5] was 28.9% and the viability, T/C [6] was 5.71%. It also gave a viability, T/C [7] of 92%, a viability, T/C [8] of 85.2% and a viability, T/C [9] of 91.3%. For the same compound, the viability, T/C [10] was 79.9%, the viability, T/C [11] was 24% and the viability, T/C [12] was 5.69%. It also gave a viability, T/C [13] of 91.1%, a viability, T/C [14] of 82.1% and a viability, T/C [15] of 77.1%. For the same compound, the viability, T/C [16] was 75.7%, the viability, T/C [17] was 24.9% and the viability, T/C [18] was 7.92%. It also gave a viability, T/C [19] of 87%, a viability, T/C [20] of 82.1% and a viability, T/C [21] of 87%. It also gave a viability, T/C [22] of 79%, a viability, T/C [23] of 28% and a viability, T/C [24] of 7.44%. The viability, T/C [25] was 78%, the viability, T/C [26] was 88.2% and the viability, T/C [27] was 81.5%. For the same compound, the viability, T/C [28] was 67.5%, the viability, T/C [29] was 32.6% and the viability, T/C [30] was 8.77%. It also gave a viability, T/C [31] of 85.6%, a viability, T/C [32] of 74.4% and a viability, T/C [33] of 79.8%. It also gave a viability, T/C [34] of 61.7%, a viability, T/C [35] of 34.5% and a viability, T/C [36] of 5.53%.
`COc1cc2cc(C(=O)CCC(=O)O)sc2cc1OC` + Cc1cccc(N(C)C(=O)C2C(O)CCN2c2nc(C)cc(C(F)(F)F)c2C#N)c1 was tested, and the pIC50 (second compound 0.0316 µM) was under 5.00, the pIC50 (second compound 0.1 µM) was under 5.00 and the pIC50 (second compound 0.316 µM) was under 5.00. It also gave a pIC50 (second compound 1 µM) of under 5.00, a pIC50 (second compound 3.16 µM) of under 5.00 and a pIC50 (second compound 10 µM) of under 5.00. The viability, T/C [1] was 90.8%, the viability, T/C [2] was 100% and the viability, T/C [3] was 86.1%. For the same compound, the viability, T/C [4] was 89.3%, the viability, T/C [5] was 89.2% and the viability, T/C [6] was 102%. For the same compound, the viability, T/C [7] was 96.3%, the viability, T/C [8] was 89.2% and the viability, T/C [9] was 85.3%. It also gave a viability, T/C [10] of 96.9%, a viability, T/C [11] of 105% and a viability, T/C [12] of 91.2%. For the same compound, the viability, T/C [13] was 102%, the viability, T/C [14] was 88.5% and the viability, T/C [15] was 85.2%. For the same compound, the viability, T/C [16] was 90.1%, the viability, T/C [17] was 85.8% and the viability, T/C [18] was 89%. The viability, T/C [19] was 88.5%, the viability, T/C [20] was 103% and the viability, T/C [21] was 96.3%. The viability, T/C [22] was 100%, the viability, T/C [23] was 102% and the viability, T/C [24] was 88.1%. The viability, T/C [25] was 101%, the viability, T/C [26] was 83.7% and the viability, T/C [27] was 103%. It also gave a viability, T/C [28] of 100%, a viability, T/C [29] of 87.7% and a viability, T/C [30] of 95.1%. It also gave a viability, T/C [31] of 94.5%, a viability, T/C [32] of 84.6% and a viability, T/C [33] of 89.7%. For the same compound, the viability, T/C [34] was 89.9%, the viability, T/C [35] was 103% and the viability, T/C [36] was 85.3%.
